Columns and labels:
Assay type in all cases: in vitro ADME
Details in all cases: petasins 20 μM, 60 min
CYP1A2 (rat) = molecular target: T1, CYP1A2 (rat) (Rattus norvegicus, UniProt P04799); experiment: Metabolism by isolated rat CYP1A2
T1 construct: purchased BD Gentest (Switzerland); host or cells: baculovirus expression system
T1 sequence (P04799 1-513): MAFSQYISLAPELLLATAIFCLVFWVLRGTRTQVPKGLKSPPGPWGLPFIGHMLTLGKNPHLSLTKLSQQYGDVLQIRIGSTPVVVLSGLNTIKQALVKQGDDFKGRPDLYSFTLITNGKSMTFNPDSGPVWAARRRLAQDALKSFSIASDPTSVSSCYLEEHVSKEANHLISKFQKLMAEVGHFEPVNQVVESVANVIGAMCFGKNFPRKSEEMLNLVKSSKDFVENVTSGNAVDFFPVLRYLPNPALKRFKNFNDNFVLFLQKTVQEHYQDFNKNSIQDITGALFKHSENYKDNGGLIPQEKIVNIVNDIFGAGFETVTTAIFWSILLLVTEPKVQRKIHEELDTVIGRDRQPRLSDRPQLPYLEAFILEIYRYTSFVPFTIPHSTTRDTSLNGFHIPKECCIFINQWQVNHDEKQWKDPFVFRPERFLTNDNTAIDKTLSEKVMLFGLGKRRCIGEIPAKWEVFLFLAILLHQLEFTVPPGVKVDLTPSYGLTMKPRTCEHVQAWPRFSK
From the text: (§1) The metabolism of petasin, isopetasin, and neopetasin was investigated using three different S9 fractions originating from three different species (isolated from rat, dog, and human liver homogenates containing cytochrome P450 isoforms) and isolated cytochromes of two different species (human and rat; rat analogues of the respective human cytochromes were used). For the expression of the different cytochromes, a baculovirus expression system was used according to supplier's manual. The S9 fractions or respectively single P450 cytochromes were used to mimic the liver metabolism by in vitro incubation.
(§2) The assay was carried out in triplicate in 1.5 ml glass vials with a final concentration of 20 μM of petasin, isopetasin, and neopetasin. The incubation was performed in a 37°C warm water bath. S9 fractions were thawed slowly on ice. […]
(§3) A mixture of NADPH regeneration systems A (20‐fold) and B (100‐fold), phosphate buffer, and H2O was added, preincubated at 37°C, and shaken gently for 5 min. […] The supernatant was transferred to high‐performance liquid chromatography vials and analyzed by ultra‐performance liquid chromatography mass spectrometry (UPLC/MS). […]

CYP3A2 (rat) = molecular target: T2, CYP3A2 (rat) (Rattus norvegicus, UniProt P05183); experiment: Metabolism by isolated rat CYP3A2
T2 construct: purchased BD Gentest (Switzerland); host or cells: baculovirus expression system
T2 sequence (P05183 1-504): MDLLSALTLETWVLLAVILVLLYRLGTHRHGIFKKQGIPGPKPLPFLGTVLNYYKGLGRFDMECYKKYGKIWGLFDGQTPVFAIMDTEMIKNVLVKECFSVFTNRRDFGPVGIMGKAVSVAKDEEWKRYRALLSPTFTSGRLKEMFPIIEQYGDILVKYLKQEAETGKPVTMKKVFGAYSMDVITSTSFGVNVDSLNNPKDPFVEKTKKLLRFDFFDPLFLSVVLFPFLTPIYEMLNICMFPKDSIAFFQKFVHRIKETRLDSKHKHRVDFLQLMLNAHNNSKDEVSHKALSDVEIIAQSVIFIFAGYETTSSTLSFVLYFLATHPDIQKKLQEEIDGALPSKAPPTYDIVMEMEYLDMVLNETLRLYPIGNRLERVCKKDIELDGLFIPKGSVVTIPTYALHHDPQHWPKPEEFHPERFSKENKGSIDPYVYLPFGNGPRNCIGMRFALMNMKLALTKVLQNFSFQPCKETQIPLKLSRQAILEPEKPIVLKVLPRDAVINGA
From the text: as §1, §2, §3

CYP2C9 (human) = molecular target: T3, CYP2C9 (human) (Homo sapiens, UniProt P11712); experiment: Metabolism by isolated human CYP2C9
T3 construct: purchased BD Gentest (Switzerland); host or cells: baculovirus expression system
T3 sequence (P11712 whole entry): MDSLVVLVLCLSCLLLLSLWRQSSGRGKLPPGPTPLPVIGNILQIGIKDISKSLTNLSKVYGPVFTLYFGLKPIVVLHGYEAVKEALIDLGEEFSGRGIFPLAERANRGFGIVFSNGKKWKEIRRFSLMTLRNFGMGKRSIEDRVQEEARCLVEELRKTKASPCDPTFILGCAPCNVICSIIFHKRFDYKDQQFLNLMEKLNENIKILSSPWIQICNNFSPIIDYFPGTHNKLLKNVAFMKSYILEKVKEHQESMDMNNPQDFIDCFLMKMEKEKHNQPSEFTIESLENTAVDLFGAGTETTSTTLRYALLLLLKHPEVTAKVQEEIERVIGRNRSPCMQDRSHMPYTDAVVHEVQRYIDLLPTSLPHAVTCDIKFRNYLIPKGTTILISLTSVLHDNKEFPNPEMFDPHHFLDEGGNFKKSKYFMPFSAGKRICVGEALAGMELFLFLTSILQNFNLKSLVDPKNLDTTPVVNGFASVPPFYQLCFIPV
From the text: as §1, §2, §3

CYP2D6 (human) = molecular target: T4, CYP2D6 (human) (Homo sapiens, UniProt P10635); experiment: Metabolism by isolated human CYP2D6
T4 construct: purchased BD Gentest (Switzerland); host or cells: baculovirus expression system
T4 sequence (P10635 whole entry): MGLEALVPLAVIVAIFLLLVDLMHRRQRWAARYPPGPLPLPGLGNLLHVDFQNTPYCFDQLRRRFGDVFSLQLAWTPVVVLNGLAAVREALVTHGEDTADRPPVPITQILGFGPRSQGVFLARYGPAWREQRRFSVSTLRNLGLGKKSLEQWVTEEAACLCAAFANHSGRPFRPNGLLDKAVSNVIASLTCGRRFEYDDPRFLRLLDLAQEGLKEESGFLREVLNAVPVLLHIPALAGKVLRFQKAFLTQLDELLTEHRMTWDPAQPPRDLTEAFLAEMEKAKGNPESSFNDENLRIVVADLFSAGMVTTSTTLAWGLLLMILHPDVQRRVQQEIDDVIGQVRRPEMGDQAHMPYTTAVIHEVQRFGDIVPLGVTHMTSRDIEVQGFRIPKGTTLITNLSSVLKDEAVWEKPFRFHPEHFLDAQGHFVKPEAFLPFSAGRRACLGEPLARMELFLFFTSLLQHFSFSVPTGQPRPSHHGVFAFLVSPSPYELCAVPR
From the text: as §1, §2, §3

| SMILES | extent of metabolism by CYP1A2 (rat) (CYP1A2 (rat)) | extent of metabolism by CYP3A2 (rat) (CYP3A2 (rat)) | extent of metabolism by CYP2C9 (human) (CYP2C9 (human)) | extent of metabolism by CYP2D6 (human) (CYP2D6 (human)) |
| --- | --- | --- | --- | --- |
| C/C=C(/C)C(=O)O[C@@H]1CCC2=CC(=O)C(=C(C)C)C[C@]2(C)[C@H]1C [isopetasin] | < 1% | 73% | – | – |
| C=C(C)[C@H]1C[C@@]2(C)C(=CC1=O)CC[C@@H](OC(=O)/C(C)=C\C)[C@@H]2C [neopetasin] | – | 46% | – | – |
| C=C(C)[C@@H]1C[C@@]2(C)C(=CC1=O)CC[C@@H](OC(=O)/C(C)=C\C)[C@@H]2C [petasin] | 43% | – | 51% | 80.2% |
